Measured values from publication doi:10.1101/2020.02.10.942029v1 (biorxiv, 2020).

Target: human CatSper (CatSper channel, cation channel of sperm) (Homo sapiens, UniProt Q7RTX7+Q86XQ3+Q8NEC5+Q96P56)
Assay: whole-cell patch clamp of human sperm
Assay type: cell-based
Conditions: activator; 20 μM, NaDVF, pHi 7.3, room temperature

fold current enhancement at -80 mV: 1.48 ± 0.47 fold
SMILES: CCCCCCOC(=O)[C@]1(O)C[C@@H]2O[C@@]1(C)n1c3ccccc3c3c4c(c5c6ccccc6n2c5c31)C(=O)NC4 [KT 5720]
